Laboratory results: ChEMBL document CHEMBL5385861, “Development of novel hydrazidoarylaminopyrimidine-based BTK/FLT3 dual inhibitors with potent in vivo anti-hematological malignancies effects” (Eur J Med Chem, 2023)
The source made the active and inactive calls. No cut-off for these calls is given here.

Key:
[1] = target: Tyrosine-protein kinase BTK (Homo sapiens, UniProt Q06187); assay: Inhibition of BTK (unknown origin) incubated for 40 mins by radiometric kinase assay
[2] = target: Serine-protein kinase ATM (Homo sapiens) (UniProt Q13315); assay: Inhibition of ATM (unknown origin) at 0.2 uM incubated for 40 mins by radiometric kinase assay relative to control
[3] = target: Tyrosine-protein kinase Blk (Homo sapiens) (UniProt P51451); assay: Inhibition of BLK (unknown origin) at 0.2 uM incubated for 40 mins by radiometric kinase assay relative to control
[4] = target: Cytoplasmic tyrosine-protein kinase BMX (Homo sapiens) (UniProt P51813); assay: Inhibition of BMX (unknown origin) at 0.2 uM incubated for 40 mins by radiometric kinase assay relative to control
[5] = target: CDK6/cyclin D3 (Homo sapiens) (UniProt P30281+Q00534); assay: Inhibition of CDK6/cyclinD3 (unknown origin) at 0.2 uM incubated for 40 mins by radiometric kinase assay relative to control; assay type: protein-complex assay
[6] = target: Epidermal growth factor receptor (Homo sapiens) (UniProt P00533); assay: Inhibition of EGFR (unknown origin) at 0.2 uM incubated for 40 mins by radiometric kinase assay relative to control
Epidermal growth factor receptor (Homo sapiens), sequence (P00533 whole entry): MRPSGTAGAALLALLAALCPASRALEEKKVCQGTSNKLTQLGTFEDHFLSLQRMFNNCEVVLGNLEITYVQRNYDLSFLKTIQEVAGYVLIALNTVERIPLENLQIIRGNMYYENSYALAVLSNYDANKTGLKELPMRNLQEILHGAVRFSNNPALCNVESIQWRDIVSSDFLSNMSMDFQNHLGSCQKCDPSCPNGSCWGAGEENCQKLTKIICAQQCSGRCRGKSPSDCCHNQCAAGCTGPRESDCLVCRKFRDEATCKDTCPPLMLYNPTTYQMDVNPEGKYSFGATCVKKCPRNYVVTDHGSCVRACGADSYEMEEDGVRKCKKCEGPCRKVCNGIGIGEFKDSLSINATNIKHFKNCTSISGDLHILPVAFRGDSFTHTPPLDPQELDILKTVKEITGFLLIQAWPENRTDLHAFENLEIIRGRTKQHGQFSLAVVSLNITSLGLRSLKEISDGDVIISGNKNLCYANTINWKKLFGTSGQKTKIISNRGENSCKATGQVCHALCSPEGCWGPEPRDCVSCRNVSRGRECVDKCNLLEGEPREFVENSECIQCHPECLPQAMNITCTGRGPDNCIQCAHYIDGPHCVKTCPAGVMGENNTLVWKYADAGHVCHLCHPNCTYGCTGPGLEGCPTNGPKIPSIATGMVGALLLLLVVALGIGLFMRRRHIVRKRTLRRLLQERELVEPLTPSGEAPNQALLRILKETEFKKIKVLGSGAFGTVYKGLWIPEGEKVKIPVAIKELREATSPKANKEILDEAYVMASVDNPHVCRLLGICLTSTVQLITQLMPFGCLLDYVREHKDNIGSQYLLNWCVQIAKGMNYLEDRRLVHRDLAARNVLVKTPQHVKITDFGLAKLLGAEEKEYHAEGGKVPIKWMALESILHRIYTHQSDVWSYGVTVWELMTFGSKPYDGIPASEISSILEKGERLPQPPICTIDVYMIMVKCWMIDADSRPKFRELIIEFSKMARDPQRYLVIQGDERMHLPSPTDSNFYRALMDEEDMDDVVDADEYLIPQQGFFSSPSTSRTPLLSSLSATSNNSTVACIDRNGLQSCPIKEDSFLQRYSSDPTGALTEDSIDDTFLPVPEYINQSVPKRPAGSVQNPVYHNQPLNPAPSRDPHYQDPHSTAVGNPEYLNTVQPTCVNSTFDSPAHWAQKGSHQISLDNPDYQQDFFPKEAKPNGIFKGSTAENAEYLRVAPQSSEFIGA

[7] = target: Vascular endothelial growth factor receptor 1 (Homo sapiens) (UniProt P17948); assay: Inhibition of FLT1 (unknown origin) at 0.2 uM incubated for 40 mins by radiometric kinase assay relative to control
Vascular endothelial growth factor receptor 1 (Homo sapiens), sequence (P17948 whole entry): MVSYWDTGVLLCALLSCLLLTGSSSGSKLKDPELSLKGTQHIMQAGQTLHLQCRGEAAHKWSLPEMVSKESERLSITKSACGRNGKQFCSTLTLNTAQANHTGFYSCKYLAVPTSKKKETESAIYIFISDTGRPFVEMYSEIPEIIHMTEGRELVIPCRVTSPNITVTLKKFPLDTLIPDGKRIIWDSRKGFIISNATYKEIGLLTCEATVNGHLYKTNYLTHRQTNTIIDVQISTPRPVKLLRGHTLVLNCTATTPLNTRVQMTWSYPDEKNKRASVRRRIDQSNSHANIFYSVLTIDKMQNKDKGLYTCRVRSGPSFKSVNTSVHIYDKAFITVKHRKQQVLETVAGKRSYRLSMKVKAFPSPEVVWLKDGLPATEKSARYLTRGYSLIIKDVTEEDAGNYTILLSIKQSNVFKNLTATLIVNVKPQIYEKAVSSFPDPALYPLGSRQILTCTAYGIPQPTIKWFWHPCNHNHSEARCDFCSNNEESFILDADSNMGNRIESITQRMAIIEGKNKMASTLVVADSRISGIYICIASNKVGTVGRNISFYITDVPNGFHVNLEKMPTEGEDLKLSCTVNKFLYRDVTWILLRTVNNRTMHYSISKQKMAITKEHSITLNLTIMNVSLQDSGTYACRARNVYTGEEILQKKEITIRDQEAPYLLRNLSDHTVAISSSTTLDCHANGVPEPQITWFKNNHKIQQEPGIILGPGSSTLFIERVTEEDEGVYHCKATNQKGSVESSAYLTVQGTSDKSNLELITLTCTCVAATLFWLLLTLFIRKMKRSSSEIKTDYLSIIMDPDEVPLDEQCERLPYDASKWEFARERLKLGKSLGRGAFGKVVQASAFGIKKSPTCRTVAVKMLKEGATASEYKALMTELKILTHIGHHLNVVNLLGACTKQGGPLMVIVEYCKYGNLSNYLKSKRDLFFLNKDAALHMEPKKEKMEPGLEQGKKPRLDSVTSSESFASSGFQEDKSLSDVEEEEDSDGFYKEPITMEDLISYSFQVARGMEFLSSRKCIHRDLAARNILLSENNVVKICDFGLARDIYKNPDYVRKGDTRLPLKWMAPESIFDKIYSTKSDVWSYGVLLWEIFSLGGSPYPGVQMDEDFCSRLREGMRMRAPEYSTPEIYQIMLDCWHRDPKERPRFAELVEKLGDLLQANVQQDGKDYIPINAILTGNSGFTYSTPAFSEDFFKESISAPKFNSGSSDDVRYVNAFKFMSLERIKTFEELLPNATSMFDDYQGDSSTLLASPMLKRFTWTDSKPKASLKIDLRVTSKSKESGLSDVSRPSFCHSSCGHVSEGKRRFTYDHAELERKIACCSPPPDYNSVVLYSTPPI

[8] = target: Dual specificity mitogen-activated protein kinase kinase 1 (Homo sapiens) (UniProt Q02750); assay: Inhibition of MEK1 (unknown origin) at 0.2 uM incubated for 40 mins by radiometric kinase assay relative to control
Dual specificity mitogen-activated protein kinase kinase 1 (Homo sapiens), sequence (Q02750 whole entry): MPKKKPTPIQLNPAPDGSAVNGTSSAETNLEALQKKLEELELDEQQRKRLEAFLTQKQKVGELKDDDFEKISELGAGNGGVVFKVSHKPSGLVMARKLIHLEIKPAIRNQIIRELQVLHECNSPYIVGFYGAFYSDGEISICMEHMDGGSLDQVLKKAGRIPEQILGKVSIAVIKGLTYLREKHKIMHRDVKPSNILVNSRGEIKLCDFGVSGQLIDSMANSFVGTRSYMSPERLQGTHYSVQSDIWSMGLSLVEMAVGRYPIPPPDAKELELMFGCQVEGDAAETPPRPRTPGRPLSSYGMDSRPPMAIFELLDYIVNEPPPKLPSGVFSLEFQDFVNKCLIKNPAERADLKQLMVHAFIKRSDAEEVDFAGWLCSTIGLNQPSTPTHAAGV

[9] = target: Serine/threonine-protein kinase mTOR (Homo sapiens) (UniProt P42345); assay: Inhibition of mTOR (unknown origin) at 0.2 uM incubated for 40 mins by radiometric kinase assay relative to control
[10] = target: Tyrosine-protein kinase SYK (Homo sapiens) (UniProt P43405); assay: Inhibition of SYK (unknown origin) at 0.2 uM incubated for 40 mins by radiometric kinase assay relative to control
JeKo-1 [11] = assay: Potency index, ratio of spebrutinib IC50 to test compound IC50 for antiproliferative activity against human JeKo-1 cells; assay type: functional
MV4-11 [12] = assay: Potency index, ratio of spebrutinib IC50 to test compound IC50 for antiproliferative activity against human MV4-11 cells; assay type: functional
MOLT-4 [13] = assay: Potency index, ratio of spebrutinib IC50 to test compound IC50 for antiproliferative activity against human MOLT-4 cells; assay type: functional
K562 [14] = assay: Potency index, ratio of spebrutinib IC50 to test compound IC50 for antiproliferative activity against human K562 cells; assay type: functional
JeKo-1 [15] = assay: Potency index, ratio of ibrutinib IC50 to test compound IC50 for antiproliferative activity against human JeKo-1 cells; assay type: functional
MOLT-4 [16] = assay: Potency index, ratio of ibrutinib IC50 to test compound IC50 for antiproliferative activity against human MOLT-4 cells; assay type: functional
JeKo-1 [17] = assay: Potency index, ratio of sorafenib IC50 to test compound IC50 for antiproliferative activity against human JeKo-1 cells; assay type: functional
[18] = target: 1-phosphatidylinositol 4,5-bisphosphate phosphodiesterase gamma-2 (Homo sapiens) (UniProt P16885); assay: Inhibition of PLCgamma2 phosphorylation in human JeKo-1 cells incubated for 72 hrs by Western blot analysis; assay type: cell-based; details: dose 30-750 nM
1-phosphatidylinositol 4,5-bisphosphate phosphodiesterase gamma-2 (Homo sapiens), sequence (P16885 whole entry): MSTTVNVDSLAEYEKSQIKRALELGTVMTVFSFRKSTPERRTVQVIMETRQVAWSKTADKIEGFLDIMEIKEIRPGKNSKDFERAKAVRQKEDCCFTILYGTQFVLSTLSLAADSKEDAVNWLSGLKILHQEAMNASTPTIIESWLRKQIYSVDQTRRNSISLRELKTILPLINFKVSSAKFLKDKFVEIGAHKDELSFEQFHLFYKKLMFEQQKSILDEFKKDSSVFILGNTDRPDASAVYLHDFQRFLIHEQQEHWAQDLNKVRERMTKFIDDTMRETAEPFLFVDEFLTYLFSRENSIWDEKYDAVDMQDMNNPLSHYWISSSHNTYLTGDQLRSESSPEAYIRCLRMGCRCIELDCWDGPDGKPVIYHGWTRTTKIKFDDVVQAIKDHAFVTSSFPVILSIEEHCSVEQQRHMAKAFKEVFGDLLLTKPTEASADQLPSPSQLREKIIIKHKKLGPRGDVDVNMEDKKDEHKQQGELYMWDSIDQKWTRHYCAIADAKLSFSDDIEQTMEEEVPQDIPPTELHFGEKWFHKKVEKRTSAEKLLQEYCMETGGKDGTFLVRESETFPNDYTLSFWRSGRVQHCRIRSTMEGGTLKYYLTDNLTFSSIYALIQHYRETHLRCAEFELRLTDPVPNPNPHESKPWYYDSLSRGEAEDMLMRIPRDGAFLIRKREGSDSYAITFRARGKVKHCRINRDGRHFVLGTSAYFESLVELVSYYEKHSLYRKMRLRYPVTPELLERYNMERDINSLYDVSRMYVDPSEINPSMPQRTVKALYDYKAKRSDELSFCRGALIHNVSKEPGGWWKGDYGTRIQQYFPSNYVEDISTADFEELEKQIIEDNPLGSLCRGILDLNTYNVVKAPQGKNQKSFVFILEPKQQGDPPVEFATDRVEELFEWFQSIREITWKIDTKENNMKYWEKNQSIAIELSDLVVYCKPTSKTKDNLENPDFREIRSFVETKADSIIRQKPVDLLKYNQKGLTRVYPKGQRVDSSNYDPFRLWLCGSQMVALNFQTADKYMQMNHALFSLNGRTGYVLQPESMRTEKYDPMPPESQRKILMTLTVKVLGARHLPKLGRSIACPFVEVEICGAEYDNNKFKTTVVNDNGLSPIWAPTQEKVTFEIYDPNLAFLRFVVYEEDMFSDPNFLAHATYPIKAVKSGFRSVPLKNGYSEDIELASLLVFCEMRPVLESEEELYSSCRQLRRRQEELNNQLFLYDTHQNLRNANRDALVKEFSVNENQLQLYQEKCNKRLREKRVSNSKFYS

[19] = target: Signal transducer and activator of transcription 5A (Homo sapiens) (UniProt P42229); assay: Inhibition of STAT5 phosphorylation in human JeKo-1 cells incubated for 72 hrs by Western blot analysis; assay type: cell-based; details: dose 30-750 nM
Signal transducer and activator of transcription 5A (Homo sapiens), sequence (P42229 whole entry): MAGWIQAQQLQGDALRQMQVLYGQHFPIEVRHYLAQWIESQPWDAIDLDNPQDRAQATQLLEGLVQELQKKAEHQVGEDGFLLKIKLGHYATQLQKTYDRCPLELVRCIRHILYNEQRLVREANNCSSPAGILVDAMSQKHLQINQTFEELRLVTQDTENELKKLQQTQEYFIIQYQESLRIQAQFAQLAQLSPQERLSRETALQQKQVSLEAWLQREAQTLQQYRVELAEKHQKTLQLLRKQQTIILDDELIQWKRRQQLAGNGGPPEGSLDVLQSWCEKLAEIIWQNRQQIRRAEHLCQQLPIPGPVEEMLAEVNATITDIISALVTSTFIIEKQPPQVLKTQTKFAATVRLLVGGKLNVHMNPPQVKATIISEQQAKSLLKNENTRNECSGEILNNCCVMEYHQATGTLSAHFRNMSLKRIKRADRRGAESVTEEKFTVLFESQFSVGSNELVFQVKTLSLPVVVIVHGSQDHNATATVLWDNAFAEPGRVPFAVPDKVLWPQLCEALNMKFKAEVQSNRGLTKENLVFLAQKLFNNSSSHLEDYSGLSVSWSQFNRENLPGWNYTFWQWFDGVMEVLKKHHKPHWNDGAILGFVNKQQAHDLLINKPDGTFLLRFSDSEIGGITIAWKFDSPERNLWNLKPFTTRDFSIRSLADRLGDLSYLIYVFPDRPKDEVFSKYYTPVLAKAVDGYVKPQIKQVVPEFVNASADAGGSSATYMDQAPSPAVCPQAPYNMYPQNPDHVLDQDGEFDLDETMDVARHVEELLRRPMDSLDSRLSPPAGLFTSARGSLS

JeKo-1 [20] = assay: Induction of apoptosis in human JeKo-1 cells assessed as necrotic cells at 750 nM incubated for 72 hrs by Annexin VFITC/PI staining based flow cytometry analysis (reference value: 0.67%); assay type: functional
JeKo-1 [21] = assay: Induction of apoptosis in human JeKo-1 cells assessed as upregulation of Bax protein expression at 30 to 750 nM incubated for 72 hrs by Western blot analysis; assay type: functional, cell-based; details: dose 30-750 nM
JeKo-1 [22] = assay: Induction of apoptosis in human JeKo-1 cells assessed as upregulation of p53 protein expression incubated for 72 hrs by Western blot analysis; assay type: functional, cell-based; details: dose 30-750 nM
JeKo-1 [23] = assay: Induction of apoptosis in human JeKo-1 cells assessed as upregulation of cleaved caspase-3 protein expression incubated for 72 hrs by Western blot analysis; assay type: functional, cell-based; details: dose 30-750 nM
[24] = Metabolic stability in human liver microsome assessed as intrinsic clearance preincubated with compound for 5 mins followed by NADPH addition and measured upto 60 mins by LC-MS/MS analysis; assay type: ADME; details: liver microsomes, time < 65 min, read-out: CLH
[25] = Acute toxicity in ICR mouse assessed as animal survival at 468.8 mg/kg, ip measured for 2 weeks; assay type: organism-based; details: in vivo
[26] = Acute toxicity in ICR mouse assessed as animal survival at 375 mg/kg, ip measured for 2 weeks; assay type: organism-based; details: in vivo
[27] = Acute toxicity in ip dosed ICR mouse assessed as change in routine blood analysis at 200 mg/kg, ip measured for 2 weeks; assay type: organism-based; details: in vivo, 336 h
PBMC = assay: Cytotoxicity against human PBMC cells assessed as reduction in cell viability; assay type: toxicity, cell-based
JeKo-1 [28] = assay: Antitumor activity against human JeKo-1 cells xenografted NOD/SCID mouse assessed as tumor growth inhibition at 25 mg/kg, ip measured for 16 days; assay type: functional; details: JeKo-1, 384 h, time 16 day, read-out: TGI
[29] = Toxicity in NOD/SCID mouse xenografted with human JeKo-1 cells assessed as eating abnormalities at 25 to 50 mg/kg, ip measured for 16 days; assay type: organism-based; details: in vivo, 384 h, dose 25-50 mg/kg, time 16 day
[30] = Toxicity in NOD/SCID mouse xenografted with human MV4-11 cells assessed as effect on body weight loss at 10 to 20 mg/kg, ip administered once daily for 21 days; assay type: organism-based; details: in vivo, 504 h, dose 10-20 mg/kg, time 21 day
MV4-11 [31] = assay: Antitumor activity against human MV4-11 cells xenografted NOD/SCID mouse assessed as increase in tumor necrotic cells at 10 mg/kg, ip administered once daily for 21 days by H and E staining analysis; assay type: functional, organism-based; details: time 21.0 day
MV4-11 [32] = assay: cells; details: Homo sapiens, MV4-11, 72 h
K562 [33] = assay: cells; details: Homo sapiens, K562, 72 h
Description: Antiproliferative activity against human K562 cells assessed as inhibition of cell growth incubated for 72 hrs by CCK8 assay

P-glycoprotein = assay: in vitro; details: human, Caco-2
Description: Efflux ratio of apparent permeability across basolateral to apical side over apical to basolateral side in human Caco-2 cells incubated for 120 mins in presence of P-glycoprotein by LC-MS/MS analysis

[34] = test system: Tyrosine-protein kinase Tec; assay: Inhibition of TEC (unknown origin) at 0.2 uM incubated for 40 mins by radiometric kinase assay relative to control; details: Homo sapiens

Molecule `CN1CCN(c2ccc(Nc3ncc(F)c(Nc4ccccc4C(=O)NN)n3)cc2)CC1` has an IC50 [1] of 0.047 µM, an inhibition [2] of -6% and an inhibition [3] of 62%. The inhibition [4] was 79%, the inhibition [5] was 23% and the inhibition [6] was 8%. The inhibition [7] was 100%, the inhibition [8] was -3% and the inhibition [9] was -7%. For the same molecule, the inhibition [10] was 4%, the “Ratio IC50” value (JeKo-1 [11]) was 8 and the “Ratio IC50” value (MV4-11 [12]) was 8. The “Ratio IC50” value (MOLT-4 [13]) was 8, the “Ratio IC50” value (K562 [14]) was 8 and the “Ratio IC50” value (JeKo-1 [15]) was 6. For the same molecule, the “Ratio IC50” value (MOLT-4 [16]) was 6, the “Ratio IC50” value (JeKo-1 [17]) was 1.3 and the inhibition [18] was “Dose-Dependent Effect”. The inhibition [19] was “Dose-Dependent Effect”, the Activity (JeKo-1 [20]) was 0.11% and the Activity (JeKo-1 [21]) was “Active”. For the same molecule, the Activity (JeKo-1 [22]) was “Dose-Dependent Effect”, the Activity (JeKo-1 [23]) was “Dose-Dependent Effect” and the CLint scaled [24] was 1.81 L/h/kg. For the same molecule, the survival at 336 h [25] was 10%, the survival at 336 h [26] was 40% and the Activity [27] was “Non-Toxic”. For the same molecule, the Activity (PBMC) was “Non-Toxic”, the inhibition in vivo at 25 mg/kg (JeKo-1 [28]) was 67% and the Activity [29] was “Non-Toxic”. For the same molecule, the Activity [30] was “Non-Toxic”, the Activity (MV4-11 [31]) was “Active” and the IC50 (MV4-11 [32]) was 0.003 µM. The IC50 (K562 [33]) was 0.93 µM, the efflux ratio at 2 h (P-glycoprotein) was 2.64 and the inhibition [34] was 47%.
